Source: US8912146B2, “Derivatives of APF and methods of use” (University of Maryland, Baltimore, priority 2008, dated 2014)
Entries after “also recorded” stand apart in the source; their conditions may differ. Where a SMILES comes first, the peptide text is derived from it. [ ]: non-standard residue; d: D form. The star is where a group is joined. ξ: configuration not given here. X1 = CC(=O)NC1C(O[C@@H]2OC(CO)[C@H](O)C(O)C2O)[C@@H](O)C(CO)O[C@@H]1*; Thr(3ξ) = CC(O)[C@H](N)C(=O)O; ξI = CCC(C)C(N)C(=O)O; ξV = CC(C)C(N)C(=O)O; ξA = CC(N)C(=O)O

How the values were obtained:
[1] = tested on: primary normal human bladder epithelial cells; assay: 3H-thymidine incorporation (antiproliferative activity) in primary normal bladder epithelial cells; assay type: cell-based; settings: for % of activity: relative to 1 (as-APF) run on the same plate, from IC50, inactive = no significant activity at <25 μM
Experimental: Cell Culture. Cystoscopy was performed under general anesthesia, and 4-mm^2 pieces of transitional epithelium with submucosal bladder tissue were obtained for the growth of primary bladder epithelial cells, as previously described (Keay et al., 1996; 2004). Primary normal bladder epithelial cells were propagated in DMEM-F12 (Media-Tech, Herndon Va.) with 10% heat-inactivated fetal bovine serum (FBS), 1% antibiotic/antimycotic solution, 1% L-glutamine, 0.25 units/mL insulin (all from Sigma, St. Louis, Mo.), and 5 ng/mL hEGF (R&D Systems, Minneapolis, Minn.) at 37° C. in a 5% CO2 atmosphere and characterized by binding of AE-1/AE-3 pancytokeratin antibodies (Signet, Dedham, Mass.).
^3H-Thymidine Incorporation. Cell proliferation was measured by ^3H-thymidine incorporation into explanted normal human bladder epithelial cells, plating 1.5×10^4 cells/well onto a 96 well cell culture plate (VWR 29442-054), in 150 ul/well MEM containing 10% heat inactivated FBS, 1% antibiotic/antimycotic solution, and 1% L-glutamine (all from Sigma), resulting in a doubling time of 48-72 hours, as previously described (Keay et al., 1996; 2004). Each purified lyophilized synthetic APF congener was resuspended in acetonitrile/distilled water (1:1), and applied to the cells in serum-free MEM (containing only L-glutamine and antibiotics/antimycotics); cell controls received acetonitrile/distilled water diluted in serum-free MEM alone. Cells were then incubated at 37° C. in a 5% CO2 atmosphere for 48 hours. The cell contents harvested and methanol-fixed onto glass fiber filter paper, and the amount of radioactivity incorporated determined. Significant inhibition of ^3H-thymidine incorporation was defined as a mean decrease in counts per minute of greater than 2 standard deviations from the mean of control cells for each plate. Inhibition of cell proliferation was determined from a semi-log plot of dose-response for each APF derivative; IC50 was determined as the concentration of each derivative that caused a mean 50% inhibition of thymidine incorporation as compared to the mean of untreated cell controls.
Statistical Analysis. The thymidine incorporation (APF biological activity) assay was performed in triplicate on at least two separate runs, with 1 run simultaneously in triplicate on the same plate. The significance of the difference between mean values for each congener vs. mean values for compound 1 was determined by an analysis of variance.

[2] = tested on: primary normal human bladder epithelial cells; settings: Keay et al., 2004; cited from earlier work
Hs839.T melanoma cells = assay: 3H-thymidine incorporation in melanoma cells; assay type: cell-based; settings: 48 hrs, compared to cell medium alone (p<0.00001); listed as negative control peptide
Experimental: Ovarian carcinoma (Caov-3), prostate carcinoma (LNCaP), melanoma (Hs839.T), pancreatic carcinoma (PANC-1), bladder carcinoma (T24, RT4 and TCCSuP), kidney carcinoma (ACHN), cervical carcinoma (HeLa), lung carcinoma (A549), colon carcinoma (WiDr), and breast carcinoma (Bt-474) cells were all purchased from the American Type Culture Collection (ATCC). Caov-3, HS839.T, PANC-1, and BT-474 cells were grown in DMEM medium (with 4 mM L-glutamine—Gibco BRL) containing 10% heat-inactivated fetal calf serum, 4.5 g/L glucose, 1.5 g/L sodium bicarbonate and 1% antibiotic/antimycotic solution (all supplements from Sigma except sodium bicarbonate which is from Gibco BRL). LNCaP cells were grown in RPMI medium (with 2 mM L-glutamine—Gibco BRL) containing10% heat-incativated fetal calf serum, 10 mM HEPES buffer, 1 mM sodium pyruvate, 4.5 g/L glucose, 1.5 g/L sodium bicarbonate, and 1% antibiotic/antimycotic solution (all supplements from Sigma except sodium bicarbonate which is from Gibco BRL). T24 and RT4 cells were grown in McCoy's 5A medium (Gibco BRL) containing 10% heat-inactivated fetal calf serum, 1% L-glutamine, 2.2 g/L sodium bicarbonate, and 1% antibiotic/antimycotic solution (all supplements from Sigma except sodium bicarbonate which is from Gibco BRL). TCCSuP, HeLa, and WiDr cells were grown in MEM (Gibco BRL) containing 10% heat-inactivated fetal calf serum, 1% L-glutamine, 1 mM sodium pyruvate, and 1% antibiotic/antimycotic solution (all supplements from Sigma). ACHN cells were grown in the same medium as TCCSuP and HeLa cells with the exception that it also contained 1.5 g/L sodium bicarbonate (Gibco BRL). A549 cells were grown in F12 medium (Gibco BRL) containing 10% heat-inactivated fetal calf serum, 1% L-glutamine, and 1% antibiotic/antimycotic solution (all supplements from Sigma).
Cancer (carcinoma or melanoma) cell proliferation was measured by ^3H-thymidine incorporation into each type of cancer cell, plating 3.0×10^3 cells/well (A549 cells) or 1.5×10^3 cells/well (all other cancer cells) onto a 96 well cell culture plate (VWR 29442-054), in 150 ul/well of the respective normal growth medium for each cell type (see above). All APF congeners were resuspended as described for normal bladder epithelial cells, except using the specific serum-free medium appropriate for each cell type, and the remainder of the assay was performed as described for normal bladder cells, above.
(§1) Significance of the difference in mean values between groups was determined by an analysis of variance.
(§2) Cell proliferation was measured by ^3H-thymidine incorporation into each cell type, plating cells in […] of their respective medium (see above) onto a 96-well cell culture plate (Corning, N.Y.) at a predetermined optimal cell density for APF inhibition of cell proliferation: Caov-3, PANC-1, T24, HeLa, and HS839.T cells were plated at a density of 1.5×10^3 cells/well; A549 cells were plated at a density of 3×10^3 cells/well. On the next day, cell growth medium was removed and replaced with serum-free medium appropriate for each cell type. […] Cells were then incubated at 37° C. in a 5% CO2 atmosphere for 48 hours, after which cell contents were harvested, methanol-fixed onto glass fiber filter paper, and the amount of radioactivity incorporated determined. […]

[3] = tested on: carcinoma cell lines (WiDr, HeLa, PANC-1, CaOv3, BT474, ACHN, T24, A549); assay: 3H-thymidine incorporation in carcinoma cell lines; assay type: cell-based; settings: 48 hrs, compared to cell medium alone (p<0.00001); listed as negative control peptide
Experimental: Ovarian carcinoma (Caov-3), prostate carcinoma (LNCaP), melanoma (Hs839.T), pancreatic carcinoma (PANC-1), bladder carcinoma (T24, RT4 and TCCSuP), kidney carcinoma (ACHN), cervical carcinoma (HeLa), lung carcinoma (A549), colon carcinoma (WiDr), and breast carcinoma (Bt-474) cells were all purchased from the American Type Culture Collection (ATCC). Caov-3, HS839.T, PANC-1, and BT-474 cells were grown in DMEM medium (with 4 mM L-glutamine—Gibco BRL) containing 10% heat-inactivated fetal calf serum, 4.5 g/L glucose, 1.5 g/L sodium bicarbonate and 1% antibiotic/antimycotic solution (all supplements from Sigma except sodium bicarbonate which is from Gibco BRL). LNCaP cells were grown in RPMI medium (with 2 mM L-glutamine—Gibco BRL) containing10% heat-incativated fetal calf serum, 10 mM HEPES buffer, 1 mM sodium pyruvate, 4.5 g/L glucose, 1.5 g/L sodium bicarbonate, and 1% antibiotic/antimycotic solution (all supplements from Sigma except sodium bicarbonate which is from Gibco BRL). […]
Cancer (carcinoma or melanoma) cell proliferation was measured by ^3H-thymidine incorporation into each type of cancer cell, plating 3.0×10^3 cells/well (A549 cells) or 1.5×10^3 cells/well (all other cancer cells) onto a 96 well cell culture plate (VWR 29442-054), in 150 ul/well of the respective normal growth medium for each cell type (see above). […]
as §1
as §2, with “cells/well.” for “cells/well. On the next day, cell growth medium was removed and replaced with serum-free medium appropriate for each cell type.”

Row | Compound | antiproliferative activity compared with as-APF (1), in words [1] | % of activity [1] | activity in biological antiproliferation assays, previously determined [2] | further results
1 | CC(=O)NC1C(O[C@@H]2OC(CO)[C@H](O)C(O)C2O)[C@@H](O)C(CO)O[C@@H]1OC(C)[C@H](N)C(=O)NC(C(=O)N1CCC[C@H]1C(=O)NC(C)C(=O)N[C@@H](CO)C(=O)NC(C(=O)N[C@H](C(=O)NC(C(=O)N[C@@H](CO)C(=O)O)C(C)C)C(C)C)C(C)C)C(C)C (stereo partly shown) [Derivative 23] (H-[Thr(3ξ)](X1)[ξV]P[ξA]S[ξV]V[ξV]S-OH) | partial inactivation | 0.2% | – | –
2 | CC(=O)NC1C(O[C@@H]2OC(CO)[C@H](O)C(O)C2O)[C@@H](O)C(CO)O[C@@H]1OC(C)[C@H](N)C(=O)NC(C(=O)N1CCC[C@H]1C(=O)NC(C)C(=O)NCC(=O)NC(C(=O)N[C@H](C(=O)NC(C(=O)NCC(=O)O)C(C)C)C(C)C)C(C)C)C(C)C (stereo partly shown) [Derivative 24] (H-[Thr(3ξ)](X1)[ξV]P[ξA]G[ξV]V[ξV]G-OH) | complete inactivation | inactive | – | –
3 | CC(=O)NC1C(O[C@@H]2OC(CO)[C@H](O)C(O)C2O)[C@@H](O)C(CO)O[C@@H]1OC(C)[C@H](N)C(=O)NC(C(=O)N1CCC[C@H]1C(=O)NC(C)C(=O)N[C@@H](C)C(=O)NC(C)C(=O)N[C@@H](C)C(=O)NC(C)C(=O)N[C@@H](C)C(=O)O)C(C)C (stereo partly shown) [Derivative 25] (H-[Thr(3ξ)](X1)[ξV]P[ξA]A[ξA]A[ξA]A-OH) | decreased antiproliferative activity | 1% | – | –
4 | CC(=O)NC1C(O[C@@H]2OC(CO)[C@H](O)C(O)C2O)[C@@H](O)C(CO)O[C@@H]1OC(C)[C@H](N)C(=O)NC(C(=O)N1CCC[C@H]1C(=O)NC(C)C(=O)N[C@@H](C)C(=O)NCC(=O)NCC(=O)NCC(=O)N[C@@H](C)C(=O)O)C(C)C (stereo partly shown) [Derivative 26] (H-[Thr(3ξ)](X1)[ξV]P[ξA]AGGGA-OH) | complete inactivation of antiproliferative activity | 0.01% | – | –
5 | CC(=O)NC1C(O[C@@H]2OC(CO)[C@H](O)C(O)C2O)[C@@H](O)C(CO)O[C@@H]1OC(C)[C@H](N)C(=O)NC(C(=O)N1CCC[C@H]1C(=O)NC(C)C(=O)N[C@@H](C)C(=O)NC(C(=O)NC(C(=O)NC(C(=O)N[C@@H](C)C(=O)O)C(C)C)C(C)C)C(C)C)C(C)C (stereo partly shown) [Derivative 27] | complete inactivation of antiproliferative activity | inactive | – | –
6 | CCC(C)C(NC(=O)[C@H](C)NC(=O)C(C)NC(=O)[C@@H]1CCCN1C(=O)C(NC(=O)[C@@H](N)C(C)O[C@H]1OC(CO)[C@H](O)C(O[C@@H]2OC(CO)[C@H](O)C(O)C2O)C1NC(C)=O)C(C)C)C(=O)N[C@H](C(=O)NC(C(=O)N[C@@H](C)C(=O)O)C(C)CC)C(C)C (stereo partly shown) [Derivative 28] (H-[Thr(3ξ)](X1)[ξV]P[ξA]A[ξI]V[ξI]A-OH) | complete inactivation of antiproliferative activity | inactive | – | –
7 | CC(=O)NC1C(O[C@@H]2OC(CO)[C@H](O)C(O)C2O)[C@@H](O)C(CO)O[C@@H]1OC(C)[C@H](N)C(=O)NC(C(=O)N1CCC[C@H]1C(=O)NC(C)C(=O)N[C@@H](C)C(=O)NC(C(=O)N[C@H](C(=O)NC(C(=O)N[C@@H](C)C(=O)O)C(C)C)C(C)C)C(C)C)C(C)C (stereo partly shown) [Derivative 36] | complete inactivity | inactive | – | –
8 | Galβ1-3GalNAcβ-O-TVPAAVVVA | – | – | completely inactive | –
9 | Galβ1-4GlcNAcα-O-SLPAAVVVA | – | – | essentially equipotent | –
10 | Neu5Ac α 2-3Galβ1-4-GlcNAcα-O-TVPAAVVVA | – | – | essentially equipotent | –
11 | Neu5Acα2-3Galβ1-3GalNAcα-O-TVPAAVVVA | – | – | essentially equipotent | –
12 | Neu5Acα2-3Galβ1-4GlcNAcα-O-SLPAAVVVA | – | – | essentially equipotent | –
13 | TVPAAVVVA [nonglycosylated nonapeptide, reference compound] | – | – | completely inactive | inhibition of melanoma cell proliferation (Hs839.T melanoma cells): no effect; also recorded: none of these cell lines was inhibited; inhibition of carcinoma cell line proliferation [3]: no effect; also recorded: none of these cell lines was inhibited
